Data on 16 compounds can be found in patent publication US11524951B2, “2-(2,4,5-substituted-anilino)pyrimidine compounds” (AstraZeneca AB, priority 2011, dated 2022).

Common to all, as to format: cell-based
In test [1] the target is T1, Exon19 deletion EGFR (Homo sapiens, UniProt P00533, DEL746-750).
T1 construct: Assays to measure cellular phosphorylation of endogenous p-EGFR in cell lysates; endogenous in cells; host or cells: PC9 (human lung cell line)
In words: Exon19 deletion EGFR (activating single mutant) cellular phosphorylation assay. The note with it: PC9 human lung cells (Exon 19 deletion EGFR); endogenous p-EGFR in cell lysates by ELISA; 2 h with compound; read-out: Assay 1 (IC50). The protocol:
Assay 1: Exon19 Deletion EGFR (Activating Single Mutant) Cellular Phosphorylation Assay
The human lung cell line PC9 (Exon 19 deletion EGFR) were obtained from the American type Culture Collection. […] Cells were grown in a humidified incubator at 37° C. with 5% CO2. Assays to measure cellular phosphorylation of endogenous p-EGFR in cell lysates were carried out according to the protocol described in the R&D Systems DuoSet IC Human Phospho-EGF R ELISA (R&D Systems catalogue number #DYC1095). 40 μL of cells were seeded (10000 cells/well) in growth medium in Corning black, clear-bottomed 384-well plates and incubated at 37° C. with 5% CO2 overnight. […] Plates were incubated for a further 2 h, then following aspiration of medium, 40 μL 1× lysis buffer was added to each well. Greiner black high bind 384-well plates were coated with capture antibody and then blocked with 3% BSA. Following removal of block, […], of lysate were transferred to the Greiner black high bind 384-well plates and incubated for 2 hours. Following aspiration and washing of the plates with PBS, 20 μL of detection antibody were added and incubated for 2 hours. […] The data obtained with each compound was exported into a suitable software package (such as Origin) to perform curve fitting analysis.

Test [2] concerns the target T2, L858R/T790M EGFR (Homo sapiens, UniProt P00533, L858R/T790M).
T2 construct: Assays to measure cellular phosphorylation of endogenous p-EGFR in cell lysates; endogenous in cells; host or cells: NCI-H1975 (human lung cell line)
Description: L858R/T790M EGFR (double mutant) cellular phosphorylation assay. The conditions noted are these: NCI-H1975 human lung cells; endogenous p-EGFR in cell lysates by ELISA; 2 h with compound. The protocol:
Assay 2: L858R/T790M EGFR (Double Mutant) Cellular Phosphorylation Assay
The human lung cell lines NCI-H1975 were obtained from the American type Culture Collection. […] Cells were grown in a humidified incubator at 37° C. with 5% CO2.
Assays to measure cellular phosphorylation of endogenous p-EGFR in cell lysates were carried out according to the protocol described in the R&D Systems DuoSet IC Human Phospho-EGF R ELISA (R&D Systems catalogue number #DYC1095).
40 μL of cells were seeded (10000 cells/well) in growth medium in Corning black, clear-bottomed 384-well plates and incubated at 37° C. with 5% CO2 overnight. […] Plates were incubated for a further 2 h and following aspiration of medium, 40 μL 1× lysis buffer was added to each well. Greiner black high bind 384-well plates were coated with capture antibody and then blocked with 3% BSA. Following removal of block, 15 μL of lysate were transferred to the Greiner black high bind 384-well plates and incubated for 2 hours. Following aspiration and washing of the plates with PBS, 20 μL of detection antibody were added and incubated for 2 hours. […] 20 μL QuantaBlu stop solution were added to plates and fluorescence read on an Envision plate reader using
The data obtained with each compound was exported into a suitable software package (such as Origin) to perform curve fitting analysis.

Test [3] concerns the target T3, Wild-type EGFR (Homo sapiens, UniProt P00533).
T3 construct: Assays to measure cellular phosphorylation of endogenous p-EGFR in cell lysates; endogenous in cells; host or cells: LoVo (human colon cell line)
In words: Wild-type EGFR cellular phosphorylation assay. The conditions noted are these: LoVo human colon cells; endogenous p-EGFR in cell lysates by ELISA; 2 h with compound, then stimulated 100 ng/ml for 10 minutes; read-out: Assay 3 (IC50). The protocol: Assay 3: Wild-Type EGFR Cellular Phosphorylation Assay
The human colon cell line LoVo were obtained from the American type Culture Collection. […] Cells were grown in a humidified incubator at 37° C. with 5% CO2. Assays to measure cellular phosphorylation of endogenous p-EGFR in cell lysates were carried out according to the protocol described in the R&D Systems DuoSet IC Human Phospho-EGF R ELISA (R&D Systems catalogue number #DYC1095). 40 μL of cells were seeded (15000 cells/well) in growth medium in Corning black, clear-bottomed 384-well plates and incubated at 37° C. with 5% CO2 overnight. […] Plates were incubated for a further 2 h then stimulated with 100 ng/ml for 10 minutes and following aspiration of medium, 40 μL 1× lysis buffer was added to each well. Greiner black high bind 384-well plates were coated with capture antibody and then blocked with 3% BSA. […] Following aspiration and washing of the plates with PBS, 20 μL of detection antibody were added and incubated for 2 hours. […] The data obtained with each compound was exported into a suitable software package (such as Origin) to perform curve fitting analysis.
(An ELISA detects its analyte on a solid surface through an enzyme-linked reagent.)

T3 sequence (P00533 25-1210): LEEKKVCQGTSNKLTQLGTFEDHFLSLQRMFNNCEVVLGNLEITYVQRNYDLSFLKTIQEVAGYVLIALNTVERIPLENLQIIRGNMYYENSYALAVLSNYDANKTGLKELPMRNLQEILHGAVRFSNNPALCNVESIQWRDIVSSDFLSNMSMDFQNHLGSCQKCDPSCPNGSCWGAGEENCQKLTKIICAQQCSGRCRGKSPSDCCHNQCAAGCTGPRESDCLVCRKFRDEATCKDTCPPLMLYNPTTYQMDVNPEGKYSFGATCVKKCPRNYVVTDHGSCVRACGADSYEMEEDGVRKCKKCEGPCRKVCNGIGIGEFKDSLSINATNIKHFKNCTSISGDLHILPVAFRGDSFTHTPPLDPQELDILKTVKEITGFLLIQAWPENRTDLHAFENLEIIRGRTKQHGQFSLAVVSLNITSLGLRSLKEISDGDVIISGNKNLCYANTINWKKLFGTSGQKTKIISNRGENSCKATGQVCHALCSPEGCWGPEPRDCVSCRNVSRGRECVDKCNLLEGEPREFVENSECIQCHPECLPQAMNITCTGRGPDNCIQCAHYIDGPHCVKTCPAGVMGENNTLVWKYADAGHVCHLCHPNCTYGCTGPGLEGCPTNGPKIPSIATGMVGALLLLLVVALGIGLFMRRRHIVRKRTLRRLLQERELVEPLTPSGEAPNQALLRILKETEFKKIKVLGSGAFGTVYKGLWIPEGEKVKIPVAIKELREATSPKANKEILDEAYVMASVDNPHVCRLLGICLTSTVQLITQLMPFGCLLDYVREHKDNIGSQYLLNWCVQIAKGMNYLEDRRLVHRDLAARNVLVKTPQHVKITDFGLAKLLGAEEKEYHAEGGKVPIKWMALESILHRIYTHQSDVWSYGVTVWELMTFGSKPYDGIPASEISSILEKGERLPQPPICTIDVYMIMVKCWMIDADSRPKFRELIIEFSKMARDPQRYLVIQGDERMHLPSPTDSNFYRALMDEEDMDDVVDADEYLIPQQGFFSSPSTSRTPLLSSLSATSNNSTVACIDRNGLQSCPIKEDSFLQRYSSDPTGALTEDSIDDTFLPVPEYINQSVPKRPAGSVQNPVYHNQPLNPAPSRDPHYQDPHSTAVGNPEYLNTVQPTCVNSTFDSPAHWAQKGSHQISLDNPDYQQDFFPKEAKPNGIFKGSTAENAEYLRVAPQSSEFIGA
T1 sequence (P00533 with tags, fused parts or gaps DEL746-750): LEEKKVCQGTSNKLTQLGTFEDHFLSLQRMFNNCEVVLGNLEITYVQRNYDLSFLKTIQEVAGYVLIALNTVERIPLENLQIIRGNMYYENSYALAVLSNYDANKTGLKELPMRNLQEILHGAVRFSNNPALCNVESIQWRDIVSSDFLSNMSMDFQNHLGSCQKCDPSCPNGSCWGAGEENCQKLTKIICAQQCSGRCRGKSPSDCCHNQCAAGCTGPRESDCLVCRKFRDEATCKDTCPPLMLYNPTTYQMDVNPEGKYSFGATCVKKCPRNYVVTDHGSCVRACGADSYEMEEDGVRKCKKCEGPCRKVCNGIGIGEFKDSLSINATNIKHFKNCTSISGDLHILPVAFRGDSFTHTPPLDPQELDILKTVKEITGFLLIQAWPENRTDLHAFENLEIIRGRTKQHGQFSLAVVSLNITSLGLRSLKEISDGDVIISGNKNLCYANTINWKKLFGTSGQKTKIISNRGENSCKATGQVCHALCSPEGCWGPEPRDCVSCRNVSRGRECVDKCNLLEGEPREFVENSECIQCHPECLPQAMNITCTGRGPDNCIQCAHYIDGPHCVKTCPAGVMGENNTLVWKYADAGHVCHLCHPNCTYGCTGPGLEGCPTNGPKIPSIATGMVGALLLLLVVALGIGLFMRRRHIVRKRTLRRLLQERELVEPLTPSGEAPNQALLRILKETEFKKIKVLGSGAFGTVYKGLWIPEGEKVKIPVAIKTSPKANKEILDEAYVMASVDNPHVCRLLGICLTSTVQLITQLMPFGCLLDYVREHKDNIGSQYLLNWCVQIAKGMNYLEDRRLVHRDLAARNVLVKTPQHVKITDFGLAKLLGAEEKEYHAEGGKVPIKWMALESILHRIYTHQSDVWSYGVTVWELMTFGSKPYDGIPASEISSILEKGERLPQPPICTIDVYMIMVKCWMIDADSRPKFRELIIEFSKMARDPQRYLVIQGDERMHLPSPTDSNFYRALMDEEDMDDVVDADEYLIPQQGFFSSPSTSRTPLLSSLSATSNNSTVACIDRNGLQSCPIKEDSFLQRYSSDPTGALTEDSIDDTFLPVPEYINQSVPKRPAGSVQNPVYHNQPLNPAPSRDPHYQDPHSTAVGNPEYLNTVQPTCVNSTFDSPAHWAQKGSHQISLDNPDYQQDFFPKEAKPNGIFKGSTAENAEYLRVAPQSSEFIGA
T2 sequence (P00533 25-1210 T790M/L858R): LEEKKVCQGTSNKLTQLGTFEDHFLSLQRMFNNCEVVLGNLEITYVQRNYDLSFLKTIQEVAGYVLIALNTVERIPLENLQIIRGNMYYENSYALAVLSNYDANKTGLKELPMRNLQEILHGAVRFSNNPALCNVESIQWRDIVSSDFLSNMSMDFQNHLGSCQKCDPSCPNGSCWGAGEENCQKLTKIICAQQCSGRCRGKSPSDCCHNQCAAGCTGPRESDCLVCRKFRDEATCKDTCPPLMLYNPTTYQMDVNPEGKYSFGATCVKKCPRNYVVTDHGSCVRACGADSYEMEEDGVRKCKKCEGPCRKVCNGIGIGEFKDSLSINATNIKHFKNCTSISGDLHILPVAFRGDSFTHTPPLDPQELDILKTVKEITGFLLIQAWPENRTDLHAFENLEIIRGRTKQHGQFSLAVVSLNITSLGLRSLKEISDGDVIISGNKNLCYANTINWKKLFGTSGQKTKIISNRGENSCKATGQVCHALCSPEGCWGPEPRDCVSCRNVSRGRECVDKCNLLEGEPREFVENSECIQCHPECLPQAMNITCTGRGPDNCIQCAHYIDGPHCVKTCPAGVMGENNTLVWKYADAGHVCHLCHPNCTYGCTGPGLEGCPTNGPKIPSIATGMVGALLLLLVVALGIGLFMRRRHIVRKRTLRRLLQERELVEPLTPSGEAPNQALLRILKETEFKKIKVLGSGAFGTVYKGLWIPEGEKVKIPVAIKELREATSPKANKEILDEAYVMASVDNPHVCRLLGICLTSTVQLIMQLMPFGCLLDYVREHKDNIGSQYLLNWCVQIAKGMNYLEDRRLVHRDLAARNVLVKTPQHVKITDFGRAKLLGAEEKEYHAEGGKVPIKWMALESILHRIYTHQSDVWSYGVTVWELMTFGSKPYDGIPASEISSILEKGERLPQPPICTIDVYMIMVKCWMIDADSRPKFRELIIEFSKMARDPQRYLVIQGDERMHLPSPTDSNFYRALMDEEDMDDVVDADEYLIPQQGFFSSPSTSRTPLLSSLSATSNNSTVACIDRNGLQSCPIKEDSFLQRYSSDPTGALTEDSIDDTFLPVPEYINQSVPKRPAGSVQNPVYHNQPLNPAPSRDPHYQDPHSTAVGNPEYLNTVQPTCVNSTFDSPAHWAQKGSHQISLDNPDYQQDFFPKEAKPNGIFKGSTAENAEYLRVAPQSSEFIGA

The IC50 is the midpoint of a concentration-inhibition curve. Turning to `C=CC(=O)Nc1cc(Nc2nccc(-c3cnn4ccccc34)n2)c(OC)cc1N1CC[C@@H]2CN(C)C[C@@H]21` [Example 55, N-[2-[(3aR,6aR)-5-Methyl-2,3,3a,4,6,6a-hexahydropyrrolo[3,4-b]pyrrol-1-yl]-4-methoxy-5-[(4-pyrazolo[1,5-a]pyridin-3-ylpyrimidin-2-yl)amino]phenyl]prop-2-enamide], the IC50 stood at 6.43 nM in test [1], 2.86 nM in test [2] and 507 nM in test [3].

On to `C=CC(=O)Nc1cc(Nc2nccc(-c3cnn4ccccc34)n2)c(OC)cc1N1CCN(C)CC1` [Example 16, N-[4-Methoxy-2-(4-methylpiperazin-1-yl)-5-[(4-pyrazolo[1,5-a]pyridin-3-ylpyrimidin-2-yl)amino]phenyl]prop-2-enamide], for which the figures for the IC50 in test [1], in test [2] and in test [3] were 144 nM, 70.5 nM and more than 18900 nM, respectively.

As for `C=CC(=O)Nc1cc(Nc2nccc(-c3cn(C)c4ccccc34)n2)c(OC)cc1N1CC2(CCCN2C)C1` [Example 49, N-(4-Methoxy-2-{8-methyl-2,8-diazaspiro[3.4]octan-2-yl}-5-{[4-(1-methylindol-3-yl)pyrimidin-2-yl]amino}phenyl)prop-2-enamide], the values for the IC50 in test [1], in test [2] and in test [3] were 74.2 nM, 51 nM and 3090 nM, respectively.

Take `C=CC(=O)Nc1cc(Nc2ncc(C#N)c(-c3cnn4ccccc34)n2)c(OC)cc1N1CC(N(C)C)C1` [Example 40, N-{5-[(5-Cyano-4-pyrazolo[1,5-a]pyridin-3-ylpyrimidin-2-yl)amino]-2-[3-dimethylaminoazetidin-1-yl]-4-methoxyphenyl}prop-2-enamide]: the IC50 in test [1] is 12.4 nM; in test [2] it was 14.8 nM; in test [3], more than 30000 nM.

With `C=CC(=O)Nc1cc(Nc2nccc(-c3c[nH]c4ccccc34)n2)c(OC)cc1N1CC[C@@H](N(C)C)C1` [Example 57, N-(2-{(3R)-3-Dimethylaminopyrrolidin-1-yl}-5-{[4-(1H-indol-3-yl)pyrimidin-2-yl]amino}-4-methoxyphenyl)prop-2-enamide], the figures for the IC50 in test [1], in test [2] and in test [3] were 6.45 nM, 14.5 nM and 89.3 nM, respectively.

`C=CC(=O)Nc1cc(Nc2nccc(-c3c[nH]c4ccccc34)n2)c(OC)cc1N1CC(N(C)C)C1` [Example 58, N-(2-[3-Dimethylaminoazetidin-1-yl]-5-{[4-(1H-indol-3-yl)pyrimidin-2-yl]amino}-4-methoxyphenyl)prop-2-enamide]: the IC50 in test [1] came out at 7.08 nM; in test [2], 16.8 nM; in test [3], 179 nM.

As for `C=CC(=O)Nc1cc(Nc2nccc(-c3cnn4ccccc34)n2)c(OC)cc1N1CC2(CCCN2C)C1` [Example 56, N-{4-Methoxy-2-[8-methyl-2,8-diazaspiro[3.4]octan-2-yl]-5-[(4-pyrazolo[1,5-a]pyridin-3-ylpyrimidin-2-yl)amino]phenyl}prop-2-enamide], the 50% inhibitory concentration (IC50) in test [1] is 44.3 nM; in test [2], 29.2 nM; in test [3], 3500 nM.

For the compound `C=CC(=O)Nc1cc(Nc2nccc(-c3cnn4ccccc34)n2)c(OC)cc1N1CC[C@@H](N(C)C)C1` [Example 52, N-{2-[(3R)-3-Dimethylaminopyrrolidin-1-yl]-4-methoxy-5-[(4-pyrazolo[1,5-a]pyridin-3-ylpyrimidin-2-yl)amino]phenyl}prop-2-enamide], the IC50 in test [1] amounted to 26 nM; in test [2], 15 nM; in test [3], 1400 nM.

As to `C=CC(=O)Nc1cc(Nc2nccc(-c3cnn4c3CCCC4)n2)c(OC)cc1N1CC(N(C)C)C1` [Example 46, N-(2-{3-Dimethylaminoazetidin-1-yl}-4-methoxy-5-{[4-(4,5,6,7-tetrahydropyrazolo[1,5-a]pyridin-3-yl)pyrimidin-2-yl]amino}phenyl)prop-2-enamide], the IC50 in test [1] came to 129 nM; in test [2] it was 92.9 nM; in test [3], 7090 nM.

In the case of `C=CC(=O)Nc1cc(Nc2ncc(C#N)c(-c3cnn4ccccc34)n2)c(OC)cc1N1CCN(C)CC1` [Example 14, N-{5-[(5-Cyano-4-pyrazolo[1,5-a]pyridin-3-ylpyrimidin-2-yl)amino]-4-methoxy-2-[4-methylpiperazin-1-yl]phenyl}prop-2-enamide], the IC50 in test [1] was found to be 53.3 nM; in test [2], 19.1 nM; in test [3], 12500 nM.

For the compound `C=CC(=O)Nc1cc(Nc2ncc(Cl)c(-c3cnn4ccccc34)n2)c(OC)cc1N1CC[C@@H](N(C)C)C1` [Example 4, N-{5-[(5-Chloro-4-pyrazolo[1,5-a]pyridin-3-ylpyrimidin-2-yl)amino]-2-[(3R)-3-dimethylaminopyrrolidin-1-yl]-4-methoxyphenyl}prop-2-enamide], the IC50 in test [1] amounted to 12.7 nM; in test [2], 1.6 nM; in test [3] it was 510 nM.

As for `C=CC(=O)Nc1cc(Nc2ncc(Cl)c(-c3c[nH]c4ccccc34)n2)c(OC)cc1N1CCN(C)CC1` [Example 17, N-(5-{[5-Chloro-4-(1H-indol-3-yl)pyrimidin-2-yl]amino}-4-methoxy-2-{4-methylpiperazin-1-yl}phenyl)prop-2-enamide], the figures for the IC50 in test [1], in test [2] and in test [3] were 23.4 nM, 5.64 nM and 772 nM, respectively.

With `C=CC(=O)Nc1cc(Nc2ncc(C#N)c(-c3cnn4ccccc34)n2)c(OC)cc1N1CC[C@@H](N(C)C)C1` [Example 38, N-{5-[(5-Cyano-4-pyrazolo[1,5-a]pyridin-3-ylpyrimidin-2-yl)amino]-2-[(3R)-3-dimethylaminopyrrolidin-1-yl]-4-methoxyphenyl}prop-2-enamide], the IC50 in test [1] was found to be 5.09 nM; in test [2], 4.41 nM; in test [3], 538 nM.

Take `C=CC(=O)Nc1cc(Nc2ncc(Cl)c(-c3c[nH]c4ccccc34)n2)c(OC)cc1N1CC[C@@H](N(C)C)C1` [Example 24, N-(5-{[5-Chloro-4-(1H-indol-3-yl)pyrimidin-2-yl]amino}-2-{(3R)-3-dimethylaminopyrrolidin-1-yl}-4-methoxyphenyl)prop-2-enamide]: the figures for the IC50 in test [1], in test [2] and in test [3] were 1.33 nM, 0.886 nM and 35.7 nM, respectively.

Take `C=CC(=O)Nc1cc(Nc2nccc(-c3cnn4ccccc34)n2)c(OC)cc1N(C)CCN(C)C` [Example 54, N-{2-[2-Dimethylaminoethyl-methylamino]-4-methoxy-5-[(4-pyrazolo[1,5-a]pyridin-3-ylpyrimidin-2-yl)amino]phenyl}prop-2-enamide]: the IC50 was 3.22 nM in test [1], 2.8 nM in test [2] and 183 nM in test [3].

Take `C=CC(=O)Nc1cc(Nc2ncc(C#N)c(-c3c[nH]c4ccccc34)n2)c(OC)cc1N1CCN(C)CC1` [Example 27, N-(5-{[5-Cyano-4-(1H-indol-3-yl)pyrimidin-2-yl]amino}-4-methoxy-2-{4-methylpiperazin-1-yl}phenyl)prop-2-enamide]: the IC50 in test [1] was 5.61 nM; in test [2] it was 11.4 nM; in test [3], 318 nM.
